Columns and labels:
[1] = tested on: mice; assay: Biocompatibility / immunotoxicity in mice (application behind the ears); details: mouse, in vivo
Experimental: Specifically, 25 μL each of phosphate-buffered saline (PBS) as a negative control, eugenol (Eug) inducing immunotoxicity as a positive control, and a C2 compound in the PDDS series were applied behind the ears of mice for 3 days, and after 6 days, the change in body weight, the feed intake and water intake, the weight of auricular lymph nodes, the number of lymph node cells, the stimulation index, and the concentrations of histamine and immunoglobulin E in the blood were measured.

[2] = tested on: skin of mouse; assay: Skin penetration efficiency, fluorescence of oil red O in skin sections; type: in vivo
Experimental: Specifically, 100 μL each of oil red O-loaded C2 compound (C2; […]) and oil red O (OR; 100 μL, stock solution: 24 μM in PBS (1% ethanol)) were applied to the skin, and after 24 and 48 hours, the skin tissue was sectioned, and then the fluorescence of oil red O was tracked (excitation: 559 nm, detection: 636±20 nm) using a fluorescence microscope, and quantified and plotted using the Image-J program.
Here, (b, c) of FIG. 25 and (e, f) of FIG. 25 show the fluorescence intensity plot of Oil red O or the C2 compound (C2) loaded with Oil red O along the yellow dotted line in the images of (a) of FIG. 25 and (d) of FIG. 25, respectively.

[3] = Water contact angle on coated slide glass; type: physicochemical; details: distilled water on coated slide glass
Experimental: Specifically, a monomer and PDDS series compounds were applied onto a slide glass from Marienfeld using a 100 μL pipette, respectively, and then the monomer and the PDDS series were uniformly coated on the slide glass while the slide glass was tilted left and right. The monomer and the PDDS series were coated for about 1 hour in a fume hood, and then 100 μL each of the monomer and PDDS series were dropped again, and coated without an empty portion of the slide glass by repeating the process two more times. Thereafter, distilled water was dropped on the surface of the coated glass slide using a contact angle meter from Kruss and the contact angles were analyzed.

[4] = tested on: B16F10 (mouse murine melanoma cell line) cells
Experimental: Specifically, B16F10 (mouse murine melanoma cell line) cells were transplanted into the left or right thigh (subcutaneously) of the mouse (6-week-old female Balb/c nude) on day 0 to induce melanoma tumor, and then after 10 days later (tumor size=about 200 mm^3), melanoma model mice were divided into 3 groups (5 mice per group), and each group was administered with 100 μL of PBS, SN-38 (3 mM), or C2+SN-38 (C2 compound encapsulated with SN-38 anticancer agent) by topical application on days 10, 12, 13, and 14 ((a) of FIG. 27). In order to determine toxicity and therapeutic effects in melanoma model mice for 16 days, changes in body weight and tumor volume were measured every 2 to 3 days. At the end of the experiment (day 15), the body of each mouse was photographed with a digital camera to determine the shape and size of the tumor, and at the end of the experiment (day 16), the tumor was extracted from the mouse. The extracted tumor tissue (harvested tumor) was photographed with a digital camera, and the size and volume thereof were measured. In addition, for hemolysis analysis, red blood cells purified from the blood sample obtained from the mouse heart were treated with 100 μL of PBS (negative control), SN-38 (3 mM), C2+SN-38, and Triton-X (0.1% (v/v); positive control) at 8% (v/v), respectively, and further incubated at 37° C. for 1 hour, and then the mixture was centrifuged at 4° C. (3000 rpm, 3 min) and the UV/vis absorption peak (492 nm) of the final obtained supernatant was measured at 25° C.

[5] = tested on: red blood cells; assay: Hemolysis analysis of mouse red blood cells; type: cell-based; details: 37° C., 1 hour, absorption 492 nm
Experimental: In addition, for hemolysis analysis, a blood sample was obtained from the heart of the mouse anesthetized with isoflurane, and then centrifuged at 4° C. (3000 rpm, 3 min) with cold 1×PBS (1 mL, 3 times) to collect red blood cells. The purified red blood cells were treated with 100 μL of 8% (v/v) each of PBS and the C2 compound and further incubated at 37° C. for 1 hour. The mixture was then collected using centrifugation at 4° C.

With `C=CCc1ccc(O)c(OC)c1` [eugenol] the “feed intake and water intake” value [1] was “took less feed and water”, the “number of lymph node cells (BrdU assay)” value [1] was “statistically significant increase” and the stimulation index [1] was “statistically significant increase”.
With `Cc1ccc(C)c(N=Nc2cc(C)c(N=Nc3c(O)ccc4ccccc34)cc2C)c1` [oil red O] the “absorption of oil red O in skin tissue (fluorescence)” value ([2]; 24 hours after application) was “hardly absorbed into the subcutaneous tissue” and the “absorption of oil red O in skin tissue (fluorescence)” value ([2]; 48 hours after application) was “hardly absorbed into the subcutaneous tissue”.
`C[Si]1(C)CC[Si](C)(C)O1` [monomer, 2,2,5,5-tetramethyl-2,5-disila-1-oxacyclopentane] showed a Contact angle [3] of 69.0±1.2 °.
In the case of `CCc1c2c(nc3ccc(O)cc13)-c1cc3c(c(=O)n1C2)COC(=O)[C@]3(O)CC` [SN-38, 7-ethyl-10-hydroxycamptothecin], the “change in body weight” value ([4]; melanoma xenograft mouse, topical on days 10, 12, 13, 14) is reported as “no significant change”, the “average tumor volume of extracted tumor” value ([4]; tumor extracted day 16) is reported as 1689±498.6 mm^3 and the “tumor growth / tumor size of extracted tumor tissue” value ([4]; tumor extracted day 16) is reported as “only slightly reduced tumor growth”. The “hemolysis rate in red blood cells” value [5] was “severe hemolysis”.
